Source: the NIST ThermoML archive (doi:10.1021/je060271a)
± gives the expanded uncertainty stated by the source.

Conditions: 283.15 K, Liquid, Vibrating tube method

CCCCCC(=O)OCC(COC(=O)CCCCC)(COC(=O)CCCCC)COC(=O)CCCCC [pentaerythritol tetrahexanoate]
Conditions	mass density [kg/m3]
20425 kPa	1015.6 ± 1.2
20443 kPa	1015.7 ± 1.2
20458 kPa	1015.7 ± 1.2
20473 kPa	1015.7 ± 1.2
20491 kPa	1015.7 ± 1.2
20506 kPa	1015.6 ± 1.2
20522 kPa	1015.6 ± 1.2
20537 kPa	1015.7 ± 1.2
20555 kPa	1015.7 ± 1.2
20571 kPa	1015.7 ± 1.2
20586 kPa	1015.8 ± 1.2
20606 kPa	1015.7 ± 1.2
20621 kPa	1015.7 ± 1.2
20637 kPa	1015.9 ± 1.2
20652 kPa	1015.7 ± 1.2
20670 kPa	1015.8 ± 1.2
20686 kPa	1015.8 ± 1.2
20701 kPa	1015.7 ± 1.2
20719 kPa	1015.8 ± 1.2
20735 kPa	1015.7 ± 1.2
20750 kPa	1015.8 ± 1.2
20769 kPa	1016 ± 1.2
20785 kPa	1015.8 ± 1.2
20801 kPa	1016 ± 1.2
20817 kPa	1015.9 ± 1.2
20836 kPa	1015.8 ± 1.2
20851 kPa	1015.8 ± 1.2
20867 kPa	1015.8 ± 1.2
20886 kPa	1015.9 ± 1.2
20902 kPa	1015.9 ± 1.2
20918 kPa	1015.9 ± 1.2
20937 kPa	1015.9 ± 1.2
20953 kPa	1015.9 ± 1.2
20968 kPa	1015.9 ± 1.2
20988 kPa	1015.9 ± 1.2
21004 kPa	1016 ± 1.2
21021 kPa	1016 ± 1.2
21040 kPa	1016 ± 1.2
21057 kPa	1016 ± 1.2
21073 kPa	1016 ± 1.2
21092 kPa	1016 ± 1.2
21106 kPa	1016 ± 1.2
21122 kPa	1016 ± 1.2
21140 kPa	1016.1 ± 1.2
21155 kPa	1016 ± 1.2
21170 kPa	1015.9 ± 1.2
21185 kPa	1016.1 ± 1.2
21204 kPa	1016.1 ± 1.2
21219 kPa	1016 ± 1.2
21237 kPa	1016 ± 1.2
21252 kPa	1016.1 ± 1.2
21267 kPa	1016.1 ± 1.2
21282 kPa	1016.1 ± 1.2
21301 kPa	1016.1 ± 1.2
21316 kPa	1016.1 ± 1.2
21332 kPa	1016.1 ± 1.2
21350 kPa	1016.1 ± 1.2
21366 kPa	1016.2 ± 1.2
21384 kPa	1016.2 ± 1.2
21399 kPa	1016.1 ± 1.2
21415 kPa	1016.1 ± 1.2
21430 kPa	1016.2 ± 1.2
21449 kPa	1016.3 ± 1.2
21465 kPa	1016.1 ± 1.2
21480 kPa	1016.2 ± 1.2
21499 kPa	1016.1 ± 1.2
21514 kPa	1016.3 ± 1.2
21530 kPa	1016.3 ± 1.2
21546 kPa	1016.3 ± 1.2
21565 kPa	1016.2 ± 1.2
21581 kPa	1016.1 ± 1.2
21597 kPa	1016.3 ± 1.2
